Consider two compounds from US20260193227A1, “THERAPEUTIC COMPOUNDS AND METHODS” (UNIVERSITY OF IOWA RESEARCH FOUNDATION, priority 2022, published 2026).

One test has as its target T1, RPA-ssDNA interaction (Homo sapiens, UniProt P27694).
T1 construct: made in house
Briefly: FRET-based inhibition of the RPA-ssDNA interaction. The class given is binding. The conditions noted are these: FRET titration. As for the experimental part: (§1) Proteins: The 6×His-tagged human RAD52 proteins (wild type and mutants) and untagged human RPA were expressed and purified as previously described in (Hengel S R, eLife. 2016; 5; Grimme J M, et al., Nucleic Acids Res. 2010; 38(9):2917-30; and Henricksen L A, et al., The Journal of biological chemistry. 1994; 269(15):11121-32). RPA and RAD52 protein concentrations were determined by measuring absorbance at 280 nm using extinction coefficients of 88,830 M^−1 cm^−1 and 40,470 M^−1 cm^−1, respectively.
(§2) FRET-based DNA binding and inhibition assays: FRET-based that monitor the RAD52-ssDNA, RPA-ssDNA and RAD52-RPA-ssDNA binding were carried out as previously described (Hengel S R, eLife. 2016; 5; Grimme J M, et al., Nucleic Acids Res. 2010; 38(9):2917-30; and Grimme J M, Spies M. FRET-based assays to monitor DNA binding and annealing by Rad52 recombination mediator protein. Methods in molecular biology (Clifton, NJ). 2011; 745:463-83) using Cary Eclipse Spectrofluorimeter (Agilent) at 25° C., in 5 mm quartz cuvettes, and in buffer containing 30 mM Tris-Acetate (pH 7.5) and 1 mM DTT. Cy3 dye was excited at 530 nm and its emission was monitored at 565 nm. Emission of Cy5 acceptor fluorophore excited through the energy transfer from Cy3 donor is monitored at 660 nm simultaneously with emission of Cy3 dye. Both the excitation and the emission slits were set to 10 nm. All experiments were carried out using 1 nM (molecules) Cy3-dT30-Cy5 ssDNA. The optimal concentrations of the RAD52 (6 nM) and RPA (1 nM) proteins were selected by titrating the respective protein into 1 nM Cy3-dT30-Cy5 solution, and chosen based on the largest separation of the FRET values corresponding to the protein bound and free DNA.
(§3) The inhibition of the RAD52-ssDNA, RPA-ssDNA and RAD52-RPA-ssDNA complexes was evaluated by titrating each compound to the respective complex, measuring Cy3 and Cy5 fluorescence, and calculating FRET as previously described (Hengel, S. R., et al., eLife, 5).
(§4) Spectral properties of many compounds overlapped with the Cy3 and Cy5 fluorescence. To correct the calculated FRET values for the compound signal, the fluorogenic compounds were titrated into buffer and into solution of 1 nM Cy3-dT30-Cy5. For all tested compounds, the change in the signal in the Cy3 and Cy5 channels with and without Cy3/Cy5-labeled DNA present was the same. […] To account for the dye fluorescence, for each compound concentration, the apparent change in FRET of the ssDNA in the presence the compound was subtracted from the respective FRET signal of the RAD52-ssDNA, RPA-ssDNA or RAD52-ssDNA-RPA complex at the same inhibitor concentration. The IC50 values were calculated by fitting the corrected FRET data to the four-parameter dose response model using GraphPad Prism. All data are shown as average for at least three independent experiments ±standard deviation. The IC50 values are presented with their respective fitting error.

For the next test, the target named is T2, RPA-ssDNA-RAD52 complex (Homo sapiens, UniProt P43351).
T2 construct: 6xHis; made in house
T2 sequence (P43351 1-418): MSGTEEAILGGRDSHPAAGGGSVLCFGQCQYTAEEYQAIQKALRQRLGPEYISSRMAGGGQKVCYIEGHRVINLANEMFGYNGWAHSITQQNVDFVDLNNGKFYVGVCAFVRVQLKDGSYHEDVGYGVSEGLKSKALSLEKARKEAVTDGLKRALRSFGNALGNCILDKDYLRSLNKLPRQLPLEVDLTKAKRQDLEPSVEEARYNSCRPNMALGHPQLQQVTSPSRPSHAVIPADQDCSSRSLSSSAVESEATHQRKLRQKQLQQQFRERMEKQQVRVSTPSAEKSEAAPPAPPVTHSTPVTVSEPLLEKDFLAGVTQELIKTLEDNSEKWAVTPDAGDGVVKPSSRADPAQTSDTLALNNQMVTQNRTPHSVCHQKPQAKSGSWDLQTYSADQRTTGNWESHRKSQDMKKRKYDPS
Description: FRET-based inhibition of the RPA-ssDNA-RAD52 complex. The class given is binding. The conditions noted are these: for effect on the RPA-ssDNA-RAD52 complex: FRET titration. As for the experimental part: as §1, §2, §3, §4

Another test concerns EUFA423F HA cells. Description: CellTiter-Glo cell viability, BRCA2-complemented cells. As to conditions: high concentrations (Z56: 250 μM). The class given is cell-based, human.

“Also recorded” adds a separate entry of the source.

T1 sequence (P27694 whole entry): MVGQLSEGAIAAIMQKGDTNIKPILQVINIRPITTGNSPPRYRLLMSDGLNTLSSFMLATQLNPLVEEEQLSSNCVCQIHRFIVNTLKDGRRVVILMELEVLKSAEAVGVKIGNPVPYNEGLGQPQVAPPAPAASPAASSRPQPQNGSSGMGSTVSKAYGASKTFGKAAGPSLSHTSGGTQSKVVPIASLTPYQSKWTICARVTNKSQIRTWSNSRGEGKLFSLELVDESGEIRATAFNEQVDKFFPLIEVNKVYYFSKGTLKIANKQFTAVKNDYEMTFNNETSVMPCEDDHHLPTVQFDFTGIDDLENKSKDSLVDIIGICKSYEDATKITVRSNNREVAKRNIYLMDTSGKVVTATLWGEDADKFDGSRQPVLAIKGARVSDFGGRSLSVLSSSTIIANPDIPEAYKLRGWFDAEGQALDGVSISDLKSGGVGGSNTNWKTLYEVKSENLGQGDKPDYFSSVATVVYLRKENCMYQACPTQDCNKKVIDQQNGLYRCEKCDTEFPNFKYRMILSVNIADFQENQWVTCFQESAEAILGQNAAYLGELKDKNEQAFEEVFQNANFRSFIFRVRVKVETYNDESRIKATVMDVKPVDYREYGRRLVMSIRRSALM
T1 sequence (P15927 whole entry partner): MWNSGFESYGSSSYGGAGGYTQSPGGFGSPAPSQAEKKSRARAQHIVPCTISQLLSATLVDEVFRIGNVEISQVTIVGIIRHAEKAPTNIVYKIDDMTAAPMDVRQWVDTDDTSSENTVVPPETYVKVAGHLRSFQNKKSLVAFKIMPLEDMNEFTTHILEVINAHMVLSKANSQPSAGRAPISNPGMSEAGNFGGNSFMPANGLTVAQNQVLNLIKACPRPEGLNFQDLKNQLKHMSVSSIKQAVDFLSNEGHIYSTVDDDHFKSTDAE
T1 sequence (P35244 whole entry partner): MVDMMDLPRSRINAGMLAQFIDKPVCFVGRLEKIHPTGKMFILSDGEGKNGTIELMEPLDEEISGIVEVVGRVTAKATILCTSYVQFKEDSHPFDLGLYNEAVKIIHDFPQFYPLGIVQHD

As for `O=C(Cn1cccc([N+](=O)[O-])c1=O)c1c[nH]c2ccccc12` [Example 1], at RPA-ssDNA interaction, the “effect on the RPA-ssDNA complex” value is on record as “yields FRET values corresponding to the free ssDNA”. For the same compound, the “effect on the RPA-ssDNA-RAD52 complex” value on RPA-ssDNA-RAD52 complex is “yields FRET values corresponding to the free ssDNA”. Further, the “effect on viability/growth of BRCA2-complemented HA cells” value in the test with EUFA423F HA cells (listed as Z99) is “affected the viability; also recorded: some toxicity towards BRCA2-complemented cells”.
As to `COc1ccccc1NS(=O)(=O)c1cc(C(=O)O)ccc1C` [Example 8], the “effect on the RPA-ssDNA complex” value at RPA-ssDNA interaction (listed as Z56) was “does not change the FRET values of the RPA-ssDNA complex; also recorded: no effect on the RPA-ssDNA complex”. Also, the “effect on the RPA-ssDNA-RAD52 complex” value at RPA-ssDNA-RAD52 complex is “decreases the FRET values of the RPA-ssDNA-RAD52 complex”. The “fold lower IC50 for the RPA-ssDNA-RAD52 complex than for the RAD52-ssDNA complex” value at RPA-ssDNA-RAD52 complex (wild type RAD52) is listed as 6 fold. For the same compound, the “effect on viability/growth of BRCA2-complemented HA cells” value in the test with EUFA423F HA cells is reported as “unaffected”.
